Source: the supplement of paper PMC11061612

Tests used:
[1] = test system: NCI-H720 (Other Solid Carcinomas); assay: combination Emax (second highest fraction inhibited in the dose matrix, 72 h); higher = more inhibition; extreme values may be limits of the assay
Procedure, shortened: (§1)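 After 24 hours at 37°C and 5% CO2 in 1536-well plates, cells in DMEM/F12 or RPMI plus 10% FBS received two-drug dose matrices for 72 hours. Viability came from CellTiter-Glo 2.0 luminescence and was scaled as inhibition, anchored at 0 by vehicle wells and at 1 by blank wells. Combination Emax is taken as the second-highest inhibition in the matrix, and Bliss excess as the observed combination effect less EA + EB − EA·EB, with EA and EB the single-agent effects.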

[2] = test system: Hs-746T (Gastric Carcinoma); assay: Bliss excess, mean over the matrix (fraction); higher = more synergy
Procedure, shortened: as §1

[3] = test system: BFTC-909 (Kidney Carcinoma); assay: as above
Procedure, shortened: as §1

[4] = test system: NCI-H720 (Other Solid Carcinomas); assay: as above
Procedure, shortened: as §1

[5] = test system: LS-123 (Colorectal Carcinoma); assay: as above
Procedure, shortened: as §1

[6] = test system: NCI-H1568 (Lung Adenocarcinoma); assay: as above
Procedure, shortened: as §1

[7] = test system: L-428 (Hodgkin's Lymphoma); assay: as above
Procedure, shortened: as §1

[8] = test system: BE-13 (T-Lymphoblastic Leukemia); assay: as above
Procedure, shortened: as §1

[9] = test system: BPH-1 (Non-Cancerous); assay: as above
Procedure, shortened: as §1

[10] = test system: OV-56 (Ovarian Carcinoma); assay: as above
Procedure, shortened: as §1

[11] = test system: MHH-CALL-2 (B-Lymphoblastic Leukemia); assay: combination Emax (second highest fraction inhibited in the dose matrix, 72 h); higher = more inhibition; extreme values may be limits of the assay
Procedure, shortened: as §1

[12] = test system: MHH-CALL-2 (B-Lymphoblastic Leukemia); assay: Bliss excess, mean over the matrix (fraction); higher = more synergy
Procedure, shortened: as §1
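Wherever Bliss excess, mean over the matrix is given: after 72 h of two-drug dosing.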

Structure (SMILES) | combination Emax [1] | Bliss excess [2] | Bliss excess [3] | Bliss excess [4] | Bliss excess [5] | Bliss excess [6] | Bliss excess [7] | Bliss excess [8] | Bliss excess [9] | Bliss excess [10] | combination Emax [11] | Bliss excess [12]
Cc1cc2ncnn2cc1Nc1ncc2c(n1)n(C1CCOCC1)c(=O)n2C [AZD7648] + CN(C)CCCOc1ccc(-c2ccc3ncc4c(c3c2)n(C2CCOCC2)c(=O)n4C)cn1 [AZD0156] (first compound max 10 µM, 7x7, partner max 1 µM) | 0.296 | -0.024 | -0.0032 | -0.0328 | 0.0338 | -0.0213 | 0.069 | -0.0188 | 0.0049 | 0.0081 | – | –
Cc1cc2ncnn2cc1Nc1ncc2c(n1)n(C1CCOCC1)c(=O)n2C [AZD7648] + COc1cc([C@@H]2c3cc4c(cc3[C@@H](O[C@@H]3O[C@@H]5CO[C@@H](C)O[C@H]5[C@H](O)[C@H]3O)[C@H]3COC(=O)[C@H]23)OCO4)cc(OC)c1O [Etoposide] (first compound max 10 µM, 7x7, partner max 10 µM) | – | – | – | – | 0.0811 | – | – | 0.0881 | – | – | – | –
Cc1nc(Nc2ncc(C(=O)Nc3c(C)cccc3Cl)s2)cc(N2CCN(CCO)CC2)n1 [Dasatinib] + CC(=O)Nc1cccc(-n2c(=O)n(C3CC3)c(=O)c3c(Nc4ccc(I)cc4F)n(C)c(=O)c(C)c32)c1 [Trametinib] (first compound max 2 µM, 7x7, partner max 1 µM) | – | -0.0943 | -0.0139 | – | 0.0891 | 0.118 | -0.0494 | 0.123 | -0.0801 | 0.0114 | 0.128 | -0.0223
COc1cc2ncnc(Nc3ccc(F)c(Cl)c3)c2cc1OCCCN1CCOCC1 [Gefitinib] + CC(C)n1c(=O)n(C)c2cnc3cc(F)c(-c4ccc(OCCCN5CCCCC5)nc4)cc3c21 [AZD1390] (first compound max 10 µM, 7x7, partner max 0.3 µM) | – | -0.0759 | -0.0614 | – | -0.0622 | -0.0412 | -0.0645 | -0.0956 | -0.0347 | -0.0543 | 0.0382 | -0.0419
CC(=O)c1c(C)c2cnc(Nc3ccc(N4CCNCC4)cn3)nc2n(C2CCCC2)c1=O [Palbociclib] + CN(CC[C@H](CSC1=CC=CC=C1)NC2=C(C=C(C=C2)S(=O)(=O)NC(=O)C3=CC=C(C=C3)N4CCC(CC4)[C@H](C5=CC=CC=C5C6=CC=C(C=C6)Cl)O)S(=O)(=O)C(F)(F)F)CCO [AZD4320] (first compound max 10 µM, 7x7, partner max 1 µM) | – | -0.0386 | -0.0576 | – | – | -0.0747 | -0.0128 | – | -0.0818 | -0.062 | 0.436 | -0.0428
N#Cc1cnc(Nc2cc(NC[C@H]3CNCCO3)c(C(F)(F)F)cn2)cn1 [SRA737] + C=CCn1c(=O)c2cnc(Nc3ccc(N4CCN(C)CC4)cc3)nc2n1-c1cccc(C(C)(C)O)n1 [AZD1775] (first compound max 10 µM, partner max 1 µM) | – | – | – | – | -0.0025 | – | – | 0.0657 | – | – | – | –
N#Cc1cnc(Nc2cc(NC[C@H]3CNCCO3)c(C(F)(F)F)cn2)cn1 [SRA737] + CCc1c2c(nc3ccc(O)cc13)-c1cc3c(c(=O)n1C2)COC(=O)[C@]3(O)CC [SN-38] (first compound max 10 µM, 7x7, partner max 0.3 µM) | – | – | – | – | -0.0163 | – | – | 0.057 | – | – | – | –
N#Cc1cnc(Nc2cc(NC[C@H]3CNCCO3)c(C(F)(F)F)cn2)cn1 [SRA737] + O=c1[nH]cc(F)c(=O)[nH]1 [5-Fluorouracil] (first compound max 10 µM, 7x7, partner max 20 µM) | – | – | – | – | -0.0135 | – | – | -0.0334 | – | – | – | –
C[C@@H](c1ccc2nccn2c1)n1nnc2ncc(-c3cnn(C)c3)nc21 [Savolitinib] + CC1(C)CCC(CN2CCN(c3ccc(C(=O)NS(=O)(=O)c4ccc(NCC5CCOCC5)c([N+](=O)[O-])c4)c(Oc4cnc5[nH]ccc5c4)c3)CC2)=C(c2ccc(Cl)cc2)C1 [Venetoclax] (first compound max 1 µM, 7x7, partner max 1 µM) | – | -0.0105 | -0.0401 | – | -0.0794 | -0.0575 | -0.0284 | -0.0307 | -0.0928 | -0.0419 | 0.0992 | -0.0471
C[C@@H](c1ccc2nccn2c1)n1nnc2ncc(-c3cnn(C)c3)nc21 [Savolitinib] + CN(CC[C@H](CSC1=CC=CC=C1)NC2=C(C=C(C=C2)S(=O)(=O)NC(=O)C3=CC=C(C=C3)N4CCC(CC4)[C@H](C5=CC=CC=C5C6=CC=C(C=C6)Cl)O)S(=O)(=O)C(F)(F)F)CCO [AZD4320] (first compound max 1 µM, 7x7, partner max 1 µM) | – | -0.0049 | -0.0417 | – | – | -0.0571 | -0.0726 | – | -0.0802 | -0.0078 | 0.454 | -0.0252
C[C@@H](c1ccc2nccn2c1)n1nnc2ncc(-c3cnn(C)c3)nc21 [Savolitinib] + Cc1c2c(nn1C)CSCc1cc(n(C)n1)CSc1cc(c3ccccc3c1)OCCCc1c(C(=O)O)n(C)c3c-2c(Cl)ccc13 [AZD5991] (first compound max 1 µM, 7x7, partner max 1 µM) | – | -0.0489 | -0.0074 | – | -0.0234 | -0.05 | -0.0296 | 0.065 | -0.0457 | -0.0547 | 0.976 | -0.0343
